Source: patent US20100203110A1, “Therapeutics for Cancer Using 3-Bromopyruvate and Other Selective Inhibitors of ATP Production” (The Johns Hopkins University, priority 2006, published 2010)

How the values were obtained:
VX2 tumor glycolysis = experiment: Glycolytic activity (lactic acid formation) of VX2 tumor slices; type: cell-based, rabbit
Protocol: Glycolysis was assayed by monitoring the formation of lactic acid following the addition of glucose to a medium containing VX2 tumor slices. Specifically, freshly excised tumors were washed 3 times at 4° C. in 20 ml Chance Hess Medium containing 6.2 mM KCl, 154 mM NaCl, and 11 mM NaPi, pH 7.4. Slices, 1 g each, were then prior incubated for 30 min in a Lab-Line incubator-shaker at 37° C. in 2 ml of the same medium while shaking at 50 rpm. Glucose was then added to give a final concentration of 6 mM, after which the incubation/shaking process was continued with 0.2 ml samples being removed every 30 min for up to 2 h. These samples were subjected to centrifugation at 14,000 rpm in an Eppendorf Centrifuge (Model 5415C). Then, aliquots of the supernatant, 0.01 ml, were removed from each sample, diluted with 0.03 ml of water and subjected to lactic acid determination using the kit supplied by Sigma. The latter contains, in addition to lactic dehydrogenase and NAD+, hydrazine, and glycine buffer, pH 9.2. The mixture was incubated for 30 min at 25° C. after which the absorbance due to formation of NADH was determined at 340 nm using a Gilford Model 260 spectrophotometer. To assess the elevation of the glycolytic activity of the VX2 tumor over that of liver tissue, parallel studies were always carried out in an identical manner with 1 g liver slices derived from the host liver. Finally, in those cases where agents were tested for their capacity to inhibit glycolysis, these were introduced into the system at the prior incubation step with all subsequent steps being run in parallel with those described above for the VX2 tumor or liver alone.
The screen included the following 9 compounds: 2-deoxyglucose (2DOG), 2-fluoro-2-deoxyglucose, 6-fluoro-6-deoxyglucose, 3-O-methyl glucose, 5-thio-D-glucose-6-phosphate, L-glucose, D-xylose, D-lyxose, and 3-bromopyruvic acid (3BrPA). The screen was conducted by incubating VX2 tumor slices in a medium containing 6 mM glucose with 6 mM of each of these agents at 37° C. for 5 h. The use of 6 mM glucose in the medium was used to mimic the maximal amount of glucose that might be in the blood in a real in vivo situation.
To compare the inhibitory effects of 2DOG and 3BrPA on the glycolytic capacity of the isolated liver implanted VX2 tumor, various concentrations of 2DOG and 3BrPA were prior incubated for 30 min at 37° C. with 1 g VX2 tumor slices and glycolysis was monitored.

"metastatic" lung tumors = experiment: Systemic delivery via marginal ear vein, metastatic lung nodules; type: in vivo, rabbit
Protocol: FIG. 4 depicts the effect of systemic delivery of 3-BrPA on animals harboring the liver implanted VX2 tumor. FIG. 4A depicts histological sections of 9 different tissues isolated 4 days after injecting 3-BrPA (25 ml 0.5 mM) into a marginal ear vein. No damage to these tissues is evident. (Magnification=120×). FIG. 4B depicts a section from a liver implanted VX2 tumor isolated from a control animal not receiving 3-BrPA. […] Cells in both appear completely viable. (Magnification 120×) FIG. 4D depicts a section of lung tissue isolated from an animal in which the liver harbored a VX2 tumor after 14 days of growth. […] (Animals evaluated=4).
Finally, it was important to examine the effect of 3-BrPA when delivered systemically (i.e., via the general circulation) on both animal toxicity and its capacity to damage liver implanted tumors.

HepG2 = experiment: Caspase-3 activity, HepG2; type: cell-based, human; details: 1 mM for 3 hour
Protocol: Caspase-3 activity and reduced cell viability was also measured in cell lines (HepG2, THLE-2, and VX2 cell lines) following 3-bromopyruvate treatment (1 mM for 3 hour) (FIG. 6A). Caspase-3 activity increased in each cell line following treatment and cell viability decreased following treatment. An increase in caspase-3 activity indicated the mechanism of cell death is apoptotic. FIGS. 6 B and C show cell viability is reduced in each cell line with increasing 3-bromopyruvate concentration after 1 and 3 hours of treatment.

[1] = Intravenous dose-escalation study in normal Lewis rats; type: in vivo, rat; details: for therapeutic dose, intravenous: Lewis rats
Protocol: In order to determine the therapeutic dose of 3-bromopyruvate for intravenous (N) administration, a dose-escalation study was conducted in normal Lewis rats (non-tumor bearing). Each group of animals (6 rats per group) received incremental doses of 3-bromopyruvate intravenously (2.5 mL of 5, 10, 15, 20, 25 and 50 mM 3-bromopyruvate).

[2] = Biodistribution of 14C radiolabeled 3-bromopyruvate in rabbit Vx-2 model; type: in vivo
Protocol: In order to properly design a treatment protocol that would ensure survival of the animal with the least amount of toxicity, the biodistribution of 3-bromopyruvate given either IV or intraarterially over a period of 24 hours was investigated. For this series of experiments, radioactive 3-bromopyruvate using ^14C was synthesized. The use of ^14C labeled 3-bromopyruvate would allow monitoring in each tissue.
36 rabbits were divided into two groups of 18 animals each. Group 1 was treated intraarterially and group 2 received intravenous injection of 3-bromopyruvate. Each group was further subdivided into six groups of three rabbits each, corresponding to various time points of sacrifice (0, 30, 60, 120 and 240 minutes and 24 hours). All rabbits were fasted for 24 hours prior to treatment. The rabbits treated intraarterially received a one-hour infusion of 25 cc of 1.75 mM 3-bromopyruvate in PBS and those treated intravenously received a one-hour infusion of 25 cc of 20 mM 3-bromopyruvate in PBS. The difference in doses of 3-bromopyruvate between intraarterial and intravenous administration is based on the optimal dose for each method of administration. Radiolabeled 3-bromopyruvate (200 μCi, 100 μL) was added to each 25 ml treatment solution. One hour before sacrifice, 1 ml of 18FDG (1 mCi) was injected via an ear vein to monitor glucose uptake.
The purpose of the injection of FDG was to correlate the effects of 3-bromopyruvate with glucose uptake. […] This finding, also present when the drug was given intraarterially, was more pronounced and the accumulation of 3-bromopyruvate is prolonged compared to IV administration.

[3] = IA one-hour infusion 25 cc 1.75 mM

Structure (SMILES): O=C(O)C(=O)CBr [3-bromopyruvate]
- inhibition of VX2 tumor glycolysis (screen) (VX2 tumor glycolysis; 6 mM agent, 6 mM glucose, VX2 tumor slices, 37° C., 5 h): almost completely inhibited
- concentration for maximal / complete inhibition of glycolysis (VX2 tumor glycolysis; VX2 tumor slices, 2DOG maximal (70%), 3BrPA complete): about 15 mM
- IC50 (VX2 tumor glycolysis; prior incubated 30 min at 37° C. with 1 g VX2 tumor slices, read-out: half maximal inhibition of glycolysis): 2400 µM
- metastatic lung tumors with a diameter greater than 1 mm ("metastatic" lung tumors; 25 ml 0.5 mM, 4 days): almost complete disappearance
- number of metastatic lung tumors greater than 1 mm in diameter ("metastatic" lung tumors; of >27 tumors counted, untreated 5): none
- Caspase-3 activity (HepG2): increased
- organs by histopathologic analysis ([1]; 50 mM IV): normal
- therapeutic dose, intravenous ([1]; 2.5 mL IV, observed 3 weeks): 20 mM
- therapeutic dose, intravenous ([1]; IV): 16.8 mg/kg
- tolerability ([1]; all doses lower than 20 mM IV): well-tolerated and caused no deaths
- clinical distress (appetite, urination, body weight) ([1]; doses lower than 20 mM IV): no evidence of clinical distress
- major organs at necropsy ([1]; doses lower than 20 mM IV): without any damage
- mortality ([1]; highest dose of 50 mM IV): all the animals in the group died
- time to death ([1]; highest dose of 50 mM IV): ≤ 15 min
- levels in the brain ([2]; 14C label): virtually undetectable
- accumulation in other organs including brain, lungs and heart [2, 3]: no accumulation
- retention in the tumor [2, 3]: stayed within the tumor up to 24 hours
- clearance route ([2]; IA, lesser extent through the kidneys): mostly through the liver
- uptake by organs (heart, lung and brain) ([2]; IV one-hour infusion 25 cc 20 mM): no significant uptake
- time of maximal tumor uptake ([2]; after IV injection): 4 h
- blood brain barrier penetration ([2]; rabbit, in vivo): does not cross the blood brain barrier
- inhibition of FDG (glucose) uptake in organs ([2]; rabbit, in vivo): no inhibition
- tissue damage at histopathologic analysis ([2]; rabbit, in vivo): none of the organs showed any associated tissue damage
